Results published in PMC9304170, “Chloromethyl Glycosides as Versatile Synthons to Prepare Glycosyloxymethyl‐Prodrugs” (Chemistry (Weinheim an Der Bergstrasse, Germany), 2022).
“And” between values parts separate entries of the source, which are not always exact repeats. Equal entries are not always repeated.

Tests used:
[1] = target: T1, Agrobacterium Sp. β-glucosidase (Abg, GH1 family) (Agrobacterium sp., UniProt P12614); test: Michaelis-Menten kinetics of enzymatic hydrolysis, release of 4-nitrophenol (absorbance at 405 nm); type: biochemical; settings: transglycosylation suggested for rate enhancement
T1 sequence (P12614 1-459): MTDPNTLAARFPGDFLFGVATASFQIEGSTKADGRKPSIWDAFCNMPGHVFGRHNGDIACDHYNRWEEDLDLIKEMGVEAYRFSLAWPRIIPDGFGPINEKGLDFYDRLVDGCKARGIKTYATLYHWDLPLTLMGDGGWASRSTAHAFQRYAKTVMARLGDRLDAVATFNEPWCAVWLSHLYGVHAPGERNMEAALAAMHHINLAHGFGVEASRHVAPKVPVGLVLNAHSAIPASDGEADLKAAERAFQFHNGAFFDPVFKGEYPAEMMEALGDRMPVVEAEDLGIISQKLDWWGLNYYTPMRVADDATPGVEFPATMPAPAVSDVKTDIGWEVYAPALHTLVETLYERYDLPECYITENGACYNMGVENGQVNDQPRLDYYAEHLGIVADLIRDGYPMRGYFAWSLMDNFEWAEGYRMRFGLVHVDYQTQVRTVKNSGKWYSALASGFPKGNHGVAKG
Procedure: Enzymatic reactions were performed in triplo at pH 6.8 (50 mM final concentration) containing 0.1 % bovine serum albumin at 37 °C.[25] Aliquots of 100 μL were taken at constant time periods and added to 100 μL aq. NaOH (0.1 M) in a 96‐well microtitre plate to quench the enzymatic reaction and ensure maximal absorption of sodium 4‐nitrophenolate as outlined in previous studies.[28] The initial rate (vo) was determined normalized on the ∼0.1 U/mL enzyme concentration and plotted against substrate concentration [S]. Non‐linear regression analysis based on 7–10 concentrations depending on the glycoside, was used to determine the Km and k cat values. k cat values were normalized based on the enzyme concentration. […]
Kinetic evaluation of 4- nitrophenyloxymethyl glycosides. Enzyme reactions were performed in triplicate. Substrate samples (final volume of 1 mL) were prepared by diluting carefully prepared substrate stock solutions with sodium phosphate buffer pH 6.8 (50 mM final concentration) containing 0.1% bovine serum albumin and milliQ to the desired concentration. The samples were equilibrated at 37 °C for at least 5 minutes before the enzyme in 50 mM buffer (2 U per ml, 50 uL) was added. Aliquots of 100 µL were taken at constant time periods and added to 100 µL aq. NaOH (0.1 M) in a 96 well microtiter plate to quench the enzymatic reaction. The absorbance was measured at 405 nm using a Tecan Spark M10 plate reader.
Negative assay controls contained no substrate or no enzyme. Rates of the enzymatic reactions were determined at 7 different substrate concentrations from 0.02 – 1.0 mM. Km and kcat values were determined by nonlinear regression analysis using Graphpad 5.0 (GraphPad Software, San Diego, California USA, www.graphpad.com) for fitting the data. Calibration samples at varying concentration (0.05 – 0.5 mM) were prepared similar to the substrate samples in the enzyme reactions by diluting a carefully prepared 4-nitrophenol stock solution with sodium phosphate buffer pH 6.8 (50 mM final concentration) containing 0.1% bovine serum albumin and milliQ to the desired concentration. […]
(T1 determined as 9.13 sec.) was used. Dynamic measurements were started by heating the sample in the NMR to 37 °C and recording a t0-spectrum. Subsequently Abg (V = 2.05 uL, 0.82 U, 1.64 U/mL) was added to the sample outside of the NMR. The sample was mixed by shaking and quickly reintroduced to the NMR.
The time of enzyme addition was recorded as t0. Spectra were recorded over an appropriate time- scale with the relaxation delay at 3*T1 of the internal standard.
In vivo experiments were performed at the company Charles Rivers (Den Bosch, The Netherlands) in accordance with Dutch law of animal experiments and under approval of the central committee of animal experiments (CCD). Relative and absolute bioavailability may be determined in different animal models and according to different protocols.
The following protocol is typical for determining bioavailability in female Beagle dogs. The animals were deprived from food over a time period of 8 h prior to administration and 2 h after administration of the test molecules. Water was supplied without limitation. On the study day, the animals received test molecule 10h […]
ethanol and 0.9% NaCl + 5% mannitol in water. Blood samples were collected from the jugular vein on the […]

[2] = target: T2, Abg (Agrobacterium Sp. β-glucosidase) (Agrobacterium sp., UniProt P12614); test: Enzymatic conversion of glycoside-drug conjugates at 200 μM analyzed by HPLC; type: biochemical; settings: for Product release: 200 μM substrate, 50 mM phosphate buffer pH 6.8, Abg 0.1 U/mL; for Product release / Enzymatic hydrolysis by Abg (in words): 37 °C; for Enzymatic hydrolysis by Abg (in words): HPLC
T2 sequence (P12614 1-459): T1 sequence (P12614 1-459)

[3] = 200 μM, in presence of 5 % ethanol
[4] = 0.5 h, in presence of 5 % ethanol
[5] = 1.0 h, in presence of 5 % ethanol
[6] = 2.0 h, in presence of 5 % ethanol

Question: Which “V0 at high substrate concentration (in words)” value [1] does the source give for `C[C@H]1O[C@@H](Oc2ccc([N+](=O)[O-])cc2)[C@H](O)[C@@H](O)[C@@H]1O` [6 b] here?
Answer: The value was “over expected rate‐enhancement”.

Question: `O=[N+]([O-])c1ccc(O[C@@H]2OC[C@@H](O)[C@H](O)[C@H]2O)cc1` [6 c, 4‐nitrophenyl xylose] was tested. Which “V0 at high substrate concentration (in words)” value [1] did it give?
Answer: Its value is “over expected rate‐enhancement”.

Question: For `O=[N+]([O-])c1ccc(O[C@@H]2O[C@H](CO)[C@H](O)[C@H](O)[C@H]2O)cc1` [6 d], which “V0 at high substrate concentration (in words)” value [1] is on record?
Answer: Its value is “followed a horizontal asymptote”.

Question: `C[C@H]1O[C@@H](Oc2ccc([N+](=O)[O-])cc2)[C@H](O)[C@@H](O)[C@H]1O` [6 e] was tested. Which “V0 at high substrate concentration (in words)” value [1] did it give?
Answer: The value was “followed a horizontal asymptote”.

Question: Which results are given for `OC[C@H]1O[C@@H](OCOc2ccccc2)[C@H](O)[C@@H](O)[C@@H]1O` [10 a]?
Answer: Product release ([2]; 0.5 h): 38.6±2.3%; Product release ([2]; 1.0 h): 66.0±2.0%; Product release ([2]; 2.0 h): 90% and 89.8±1.7%; Increase in conversion compared to direct conjugate Glc−Ph ([2]; after two hours, 200 μM, Abg): twenty

Question: How did the “Enzymatic hydrolysis by Abg (in words)” value [2, 3] turn out when `CC(C)c1cccc(C(C)C)c1OCO[C@@H]1O[C@H](CO)[C@@H](O)[C@H](O)[C@H]1O` [10 b] was run?
Answer: Its value is “not hydrolyzed”.

Question: What about the Product release [2, 4] of the same molecule?
Answer: Its Product release is 1.95±0.3%.

Question: And the Product release [2, 5]?
Answer: The Product release was 1.73±0.3%.

Question: And the Product release [2, 6]?
Answer: Its Product release is 1.66±0.4%.

Question: For `CCCCc1nc(Cl)c(CO)n1Cc1ccc(-c2ccccc2-c2nnn(CO[C@@H]3O[C@H](CO)[C@@H](O)[C@H](O)[C@H]3O)n2)cc1` [10 i], which “Enzymatic hydrolysis by Abg (in words)” value [2, 3] is on record?
Answer: Its value is “hydrolyzed slower”.

Question: And the Product release [2, 4]?
Answer: The Product release was 16.7±4.8%.

Question: What about the Product release [2, 5] of the same molecule?
Answer: Its Product release is 39.3±2.2%.

Question: And the Product release [2, 6]?
Answer: The Product release was 51.3±4%.

Question: And the Product release ([2]; 24 h, in presence of 5 % ethanol)?
Answer: Its Product release is 74.7±10%.

Question: What does the source list for `OC[C@H]1O[C@@H](Oc2ccccc2)[C@H](O)[C@@H](O)[C@@H]1O` [Glc−Ph, phenyl β‐D‐glucopyranoside, reference compound]?
Answer: Product release ([2]; 0.5 h): 1.9±0.04%; Product release ([2]; 1.0 h): 3.0±0.30%; Product release ([2]; 2.0 h): 5.2±0.16%; Product release ([2]; 24 h): 28% and 27.7±5.5%
